Measured values taken from US10201543B2, “Therapeutically active compounds and their methods of use” (Agios Pharmaceuticals, Inc., priority 2015, dated 2019).

Tests used:
[1] = tested on: TF-1/IDH2 (R140Q) mutant cells; assay: 2-HG levels in TF-1/IDH2 (R140Q) mutant cells; type: cell-based
Method: TF-1/IDH2 (R140Q) mutant cells are treated in vitro for 7 days with vehicle (dimethylsulfoxide; […].

[2] = tested on: TF-1 IDH2 (R140Q) cells; assay: Vimentin expression in TF-1 IDH2 (R140Q) cells; type: cell-based; settings: 7 days; 2-HG levels below 1 mM, dose >200 nM
[3] = tested on: TF-1 IDH2 (R140Q) cells; assay: GM-CSF-independent growth of TF-1 IDH2 (R140Q) cells; type: cell-based; settings: 1 μM, 7 days
[4] = tested on: TF-1 IDH2 (R140Q) mutant cells; assay: EPO-induced differentiation in TF-1 IDH2 (R140Q) mutant cells; type: cell-based; settings: when 2-HG levels fall below 1 mM
[5] = tested on: primary human IDH2 (R140Q) mutant AML cells; assay: Ex vivo treatment of primary human AML blast cells; type: cell-based; settings: for percentage of blast cells: from 90%, 500, 1000, 5000 nM
Description: Cells are counted at Days 3, 6, 9, and 13 and normalized to DMSO control.

[6] = tested on: AMNI7577-P2 (HuKemia model); assay: Survival in mutant positive AML mouse model (AMNI7577-P2, NOD/SCID mice); type: in vivo
[7] = tested on: U87MG IDH2 (R140Q) tumor; assay: PK/PD in U87MG IDH2 (R140Q) mouse xenograft model; settings: 3 consecutive doses of 25 mg/kg or above, twice daily, 12 hour interval
[8] = tested on: CYP1A2; assay: CYP induction, CYP1A2; type: in vitro ADME
[9] = tested on: human CYP3A4; assay: CYP induction, CYP3A4
[10] = tested on: CYP2B6; assay: CYP induction, CYP2B6

| SMILES | intracellular levels of 2-HG ([1]; 5 μM, 7 days, 15.5 mM with DMSO) [mM] | inhibition at 1 µM ([1]; 168 h, read-out: 2-HG production inhibited) [%] | IC90 ([1]; 168 h, read-out: inhibitory concentration, 90% (IC90) for 2-HG inhibition) [nM] | IC50 ([1]; 168 h, read-out: intracellular IC50 for 2-HG inhibition) [nM] | vimentin expression induced by IDH2 (R140Q) [2] | GM-CSF independent growth [3] | EPO-induced expression of hemoglobin gamma 1/2 and KLF-1 [4] | population of more differentiated cells (metamyelocytes) ([5]; 9 days ex vivo) | percentage of blast cells ([5]; Day 6) [%] | percentage of blast cells ([5]; Day 9) [%] | intracellular 2-HG ([5]; ex vivo treatment) | Survival at study termination ([6]; 45 mg/kg PO/BID, Day 48-84) | survival in comparison to cytarabine ([6]; 5, 15, 45 mg/kg) | leukemia burden and differentiation ([6]; all treated animals) | tumor 2-HG levels [7] | induction of CYP1A2 [8] | induction of human CYP3A4 [9] | induction of CYP2B6 [10] |
| --- | --- | --- | --- | --- | --- | --- | --- | --- | --- | --- | --- | --- | --- | --- | --- | --- | --- | --- |
| CC(C)(O)CNc1nc(Nc2ccnc(C(F)(F)F)c2)nc(-c2cccc(C(F)(F)F)n2)n1 [compound 3, 2-Methyl-1-[(4-[6-(trifluoromethyl)pyridin-2-yl]-6-{[2-(trifluoromethyl)pyridin-4-yl]amino}-1,3,5-triazin-2-yl)amino]propan-2-ol] | 0.08 | > 99 | 160 | 16 | reduced to baseline levels | reversed | restores | clear increase | 55 | 40 | decrease | all 9 mice survived | dose dependent survival advantage | dose dependent decrease in leukemia and evidence of normal differentiation | decrease to baseline |  |  |  |
| Nc1nc(Nc2ccnc(C(F)(F)F)c2)nc(-c2cccc(C(F)(F)F)n2)n1 [compound 2, 6-(6-(trifluoromethyl)pyridin-2-yl)-N2-(2-(trifluoromethyl)pyridin-4-yl)-1,3,5-triazine-2,4-diamine] |  |  |  |  |  |  |  |  |  |  |  |  |  |  |  | not observed | weak inducers | not observed |
